Laboratory results published in PubChem BioAssay AID1745844 (Carcinogenic Potency Database (CPDB), 2022).
Activity calls are given as the source filed them. No rule for the calls is given here.

System: rodent lifetime carcinogenesis bioassay, tumor incidence TD50
Test: carcinogenic potency in animals, long-term in vivo studies, CPDB compilation (AID 1745844)
Details: mouse, study length 104 weeks

SMILES: ClCCl
- TD50 (strain B6C3F1, females, inhaled, site: any site (literature study), lesion: several types, types named in the paper, dosed 102 weeks): 1020 mg/kg/day
- TD50 (strain B6C3F1, females, inhaled, site: liver + lung, lesion: hepatocellular adenoma + hepatocellular carcinoma + alveolar/bronchiolar adenoma + alveolar/bronchiolar carcinoma, dosed 102 weeks): 817 mg/kg/day
- TD50 (strain B6C3F1, females, inhaled, site: liver, lesion: hepatocellular adenoma + hepatocellular carcinoma + neoplastic nodule, dosed 102 weeks): 1430 mg/kg/day
- TD50 (strain B6C3F1, females, inhaled, site: liver, lesion: hepatocellular adenoma + hepatocellular carcinoma, dosed 102 weeks): 1430 mg/kg/day
- TD50 (strain B6C3F1, females, inhaled, site: liver, lesion: hepatocellular adenoma, dosed 26 weeks): 2570 mg/kg/day
- TD50 (strain B6C3F1, females, inhaled, site: liver, lesion: hepatocellular adenoma, dosed 52 weeks): 6250 mg/kg/day
- TD50 (strain B6C3F1, females, inhaled, site: liver, lesion: hepatocellular adenoma, dosed 78 weeks): 2780 mg/kg/day
- TD50 (strain B6C3F1, females, inhaled, site: liver, lesion: hepatocellular adenoma, dosed 102 weeks): 3170 mg/kg/day
- TD50 (strain B6C3F1, females, inhaled, site: liver, lesion: hepatocellular adenoma, dosed 104 weeks): 4860 mg/kg/day
- TD50 (strain B6C3F1, females, inhaled, site: liver, lesion: hepatocellular carcinoma, dosed 26 weeks): 6790 mg/kg/day
- TD50 (strain B6C3F1, females, inhaled, site: liver, lesion: hepatocellular carcinoma, dosed 52 weeks): 4960 mg/kg/day
- TD50 (strain B6C3F1, females, inhaled, site: liver, lesion: hepatocellular carcinoma, dosed 78 weeks): 4020 mg/kg/day
- TD50 (strain B6C3F1, females, inhaled, site: liver, lesion: hepatocellular carcinoma, dosed 102 weeks): 1850 mg/kg/day
- TD50 (strain B6C3F1, females, inhaled, site: liver, lesion: hepatocellular carcinoma, dosed 104 weeks): 2750 mg/kg/day
- TD50 (strain B6C3F1, females, inhaled, site: liver, lesion: several types, types named in the paper, dosed 26 weeks): 1840 mg/kg/day
- TD50 (strain B6C3F1, females, inhaled, site: liver, lesion: several types, types named in the paper, dosed 52 weeks): 2850 mg/kg/day
- TD50 (strain B6C3F1, females, inhaled, site: liver, lesion: several types, types named in the paper, dosed 78 weeks): 1730 mg/kg/day
- TD50 (strain B6C3F1, females, inhaled, site: liver, lesion: several types, types named in the paper, dosed 104 weeks): 1740 mg/kg/day
- TD50 (strain B6C3F1, females, inhaled, site: lung, lesion: adenoma, dosed 26 weeks): 3400 mg/kg/day
- TD50 (strain B6C3F1, females, inhaled, site: lung, lesion: adenoma, dosed 52 weeks): 3810 mg/kg/day
- TD50 (strain B6C3F1, females, inhaled, site: lung, lesion: adenoma, dosed 78 weeks): 3590 mg/kg/day
- TD50 (strain B6C3F1, females, inhaled, site: lung, lesion: alveolar/bronchiolar adenoma + alveolar/bronchiolar carcinoma, dosed 102 weeks): 917 mg/kg/day
- TD50 (strain B6C3F1, females, inhaled, site: lung, lesion: alveolar/bronchiolar adenoma, dosed 102 weeks): 1420 mg/kg/day
- TD50 (strain B6C3F1, females, inhaled, site: lung, lesion: alveolar/bronchiolar adenoma, dosed 104 weeks): 5020 mg/kg/day
- TD50 (strain B6C3F1, females, inhaled, site: lung, lesion: alveolar/bronchiolar carcinoma, dosed 102 weeks): 1690 mg/kg/day
- TD50 (strain B6C3F1, females, inhaled, site: lung, lesion: alveolar/bronchiolar carcinoma, dosed 104 weeks): 2670 mg/kg/day
- TD50 (strain B6C3F1, females, inhaled, site: lung, lesion: carcinoma, dosed 26 weeks): 1650 mg/kg/day
- TD50 (strain B6C3F1, females, inhaled, site: lung, lesion: carcinoma, dosed 52 weeks): 952 mg/kg/day
- TD50 (strain B6C3F1, females, inhaled, site: lung, lesion: carcinoma, dosed 78 weeks): 2830 mg/kg/day
- TD50 (strain B6C3F1, females, inhaled, site: lung, lesion: several types, types named in the paper, dosed 26 weeks): 1280 mg/kg/day
- TD50 (strain B6C3F1, females, inhaled, site: lung, lesion: several types, types named in the paper, dosed 52 weeks): 804 mg/kg/day
- TD50 (strain B6C3F1, females, inhaled, site: lung, lesion: several types, types named in the paper, dosed 78 weeks): 1520 mg/kg/day
- TD50 (strain B6C3F1, females, inhaled, site: lung, lesion: several types, types named in the paper, dosed 104 weeks): 1650 mg/kg/day
- TD50 (strain B6C3F1, females, inhaled, site: thyroid gland, lesion: follicular-cell adenoma, dosed 102 weeks): 15800 mg/kg/day
- TD50 (strain B6C3F1, males, in drinking water, site: liver, lesion: hepatocellular adenoma, dosed 104 weeks): 2900 mg/kg/day (inactive)
- TD50 (strain B6C3F1, males, in drinking water, site: liver, lesion: hepatocellular carcinoma, dosed 104 weeks): 2350 mg/kg/day (inactive)
- TD50 (strain B6C3F1, males, in drinking water, site: liver, lesion: several types, types named in the paper, dosed 104 weeks): 1310 mg/kg/day (inactive)
- carcinogen call (strain B6C3F1, males, in drinking water, site: thyroid gland, lesion: one or several types, types not named, dosed 104 weeks): negative (inactive)
- TD50 (strain B6C3F1, males, inhaled, site: all sites, lesion: hemangioma + hemangiosarcoma, dosed 102 weeks): 13200 mg/kg/day
- TD50 (strain B6C3F1, males, inhaled, site: all sites, lesion: hemangiosarcoma, dosed 102 weeks): 12900 mg/kg/day
- TD50 (strain B6C3F1, males, inhaled, site: any site (literature study), lesion: several types, types named in the paper, dosed 102 weeks): 1160 mg/kg/day
- TD50 (strain B6C3F1, males, inhaled, site: liver + lung, lesion: hepatocellular adenoma + hepatocellular carcinoma + alveolar/bronchiolar adenoma + alveolar/bronchiolar carcinoma, dosed 102 weeks): 1090 mg/kg/day
- TD50 (strain B6C3F1, males, inhaled, site: liver, lesion: hepatocellular adenoma + hepatocellular carcinoma + neoplastic nodule, dosed 102 weeks): 1800 mg/kg/day
- TD50 (strain B6C3F1, males, inhaled, site: liver, lesion: hepatocellular adenoma + hepatocellular carcinoma, dosed 102 weeks): 1800 mg/kg/day
- TD50 (strain B6C3F1, males, inhaled, site: liver, lesion: hepatocellular adenoma, dosed 102 weeks): 3480 mg/kg/day
- TD50 (strain B6C3F1, males, inhaled, site: liver, lesion: hepatocellular carcinoma, dosed 102 weeks): 2690 mg/kg/day
- TD50 (strain B6C3F1, males, inhaled, site: lung, lesion: alveolar/bronchiolar adenoma + alveolar/bronchiolar carcinoma, dosed 102 weeks): 920 mg/kg/day
- TD50 (strain B6C3F1, males, inhaled, site: lung, lesion: alveolar/bronchiolar adenoma, dosed 102 weeks): 1680 mg/kg/day
- TD50 (strain B6C3F1, males, inhaled, site: lung, lesion: alveolar/bronchiolar carcinoma, dosed 102 weeks): 1710 mg/kg/day
- TD50 (strain Swiss, females, by gavage, site: lung, lesion: adenoma, dosed 64 weeks): 7050 mg/kg/day
- TD50 (strain Swiss, males, by gavage, site: lung, lesion: adenoma, dosed 64 weeks): 916 mg/kg/day
